Assay results from patent US20250295748A1 (priority 2020, published 2025).
*1 amine or outer side, *2 acyl side, *3 side chain or, on linkers, in order; H or OH if unused. Where a SMILES comes first, the peptide text is derived from it. Bridges are numbered along the chain shown (N, C = ends). [ ]: non-standard residue; d: D form. X1 = CC(C)CCCCCCCCC[C@H](CC(=O)[*:1])O[*:2]

Target: Bovine Serum Albumin (BSA) (Bos taurus, UniProt P02769)
Assay: Thermal shift assay (SYPRO-Orange) of BSA
Format: biochemical
Details: FIG. 8, BSA 0.1 mg/ml, 1×PBS

Bovine Serum Albumin (BSA), sequence (P02769 25-607): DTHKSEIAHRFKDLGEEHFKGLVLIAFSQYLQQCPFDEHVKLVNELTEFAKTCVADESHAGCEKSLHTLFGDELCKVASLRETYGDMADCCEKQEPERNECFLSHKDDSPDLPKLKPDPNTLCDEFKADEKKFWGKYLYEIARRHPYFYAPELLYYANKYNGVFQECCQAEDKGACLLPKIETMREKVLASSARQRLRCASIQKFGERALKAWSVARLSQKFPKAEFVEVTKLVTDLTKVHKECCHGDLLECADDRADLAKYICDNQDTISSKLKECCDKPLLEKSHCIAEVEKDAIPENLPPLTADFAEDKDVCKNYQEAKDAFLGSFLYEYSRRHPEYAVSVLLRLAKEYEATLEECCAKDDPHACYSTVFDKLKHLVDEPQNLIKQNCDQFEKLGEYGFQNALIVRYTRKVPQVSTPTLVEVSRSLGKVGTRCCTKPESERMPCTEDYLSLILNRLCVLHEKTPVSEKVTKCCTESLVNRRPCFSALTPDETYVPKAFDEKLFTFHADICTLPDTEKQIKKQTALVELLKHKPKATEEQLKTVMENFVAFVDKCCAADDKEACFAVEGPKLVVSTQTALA

Q: Which “denaturing activity against BSA (decrease in Tm vs concentration)” value does the source give for CC(C)CCCCCCCCC[C@@H]1CC(=O)N[C@@H](CCC(=O)O)C(=O)N[C@@H](CC(C)C)C(=O)N[C@H](CC(C)C)C(=O)N[C@@H](C(C)C)C(=O)N[C@@H](CC(=O)O)C(=O)N[C@H](CC(C)C)C(=O)N[C@@H](CC(C)C)C(=O)O1 [Surfactin] (EL[dL]VD[dL]L; linker N-C via X1) here?
A: Its value is “potent at denaturing BSA but less than 277-SEC”.
